From patent US20240293360A1 (priority 2021, published 2024)

Test system: cancer cell lines HCT-116, SCC VII, and A549
Assay type: cell-based

O=C(CBr)N1CC([N+](=O)[O-])([N+](=O)[O-])C1 [Sample 2, 2-bromo-1-(3,3-dinitroazetidin-1-yl)ethanone]
suppressing viability of cancer cell lines, compared to impact sensitive form of ABDNAZ (samples 1 and 3): more effective
